Source: PMC11992225, “Antibacterial compounds against non-growing and intracellular bacteria” (npj Antimicrobials and Resistance, 2025)
≈ marks a conversion by molar mass, not a printed value. Read-outs that look alike come from different tables or passages of the source.

Tests used:
[1] = test system: P. aeruginosa DSM1117; assay: MIC, standard microdilution assay, growing P. aeruginosa; format: cell-based, Pseudomonas aeruginosa; details: Pseudomonas aeruginosa
In short: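 Medium: CA-MHB + 40 mM HEPES, pH 7.4 (UPEC, P. aeruginosa, S. aureus); LPM + 30 mM MES, pH 5.5 (UPEC, extra condition); TSB (S. flexneri). Microdilution format, n = 3.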

[2] = test system: non-growing UPEC CFT073; assay: Dilution-regrowth assay (screen, hit validation, dose-response) on stationary-phase UPEC; format: cell-based, Escherichia coli; details: for OD600 at 6hr, Mean: after dilution into drug-free medium; for EC50: Escherichia coli
In short: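 Regrowth (OD600 after 6 h, 37 °C) of diluted non-growing CFT073, following 24 h compound treatment of 24 h stationary cultures, defines activity relative to untreated control. Screen at 20 µM, validation at 20, 10, 5 µM (duplicates), dose–response in three biological replicates fitted by five-parameter logistic.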

[3] = test system: non-growing S. aureus DSM2569; assay: Dilution-regrowth assay (OD600, start-growth-time) on stationary-phase S. aureus; format: cell-based, Staphylococcus aureus; details: for OD600 at 8hr, Mean: after dilution into drug-free medium; for EC50: Staphylococcus aureus
Method: The cultures were grown and treated for 24 h in 1:4 CA-MHB (pH 7.4).
This approach allowed us to capture the time when cultures reached a threshold optical density (start-growth-time, SGT[15]).
The cultures were incubated for 24 h in non-baffled Erlenmeyer flasks at 37 °C with shaking at 200 rpm.
For P. aeruginosa and S. aureus, dose–response analysis was conducted in 96-well plates with a 200 μl assay volume, following the procedure used for screening assay validation experiments. […] Stock solutions were prepared and stored according to the manufacturers’ instructions, then diluted in 10% DMSO before use. Cultures were incubated for 24 h in 1:4 diluted CA-MHB medium under the same conditions used for UPEC cultivation. In preliminary experiments, each compound was tested at a concentration of 20 μM in the dilution-regrowth assay with 4 technical replicates. Regrowth was monitored using a microplate reader at 37 °C with continuous shaking, and OD600 was recorded every 20 min. The time at which OD600 exceeded the threshold of 0.12 was recorded as the Start_Growth-Time.
Statistical significance of the drug effects was assessed using a one-way ANOVA followed by Dunnett’s test, comparing each treatment to the drug-free control. Statistical significance of the differences in chemical characteristics between the hit compounds and the Prestwick library was assessed using a Mann–Whitney test. Statistical significance was set at P ≤ 0.05. A five-parameter logistic equation was used for asymmetric sigmoidal curve fitting and for EC50 and IC50 determination. The Venn diagram in Fig. 1F was prepared using BioVenn web application. Characteristics of the chemical and physical properties of Prestwick library compounds were obtained from Supplementary Table S1 from reference. Characteristics of the hit compounds not included in the Prestwick library were retrieved from the PubChem database.

[4] = test system: non-growing UPEC CFT073; assay: Dose-dependent killing analysis (CFU spot-plating) of stationary-phase UPEC; format: cell-based, Escherichia coli
In short: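 Non-growing (stationary-phase) UPEC CFT073 treated with compounds in 96-well format at 200 μl, then 10-fold serially diluted in PBS and 10 μl spots plated on LB agar. Plates incubated overnight at 37 °C; colonies counted at lowest resolvable dilution to give CFU. Three biological replicates.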

[5] = E. coli in 1:4 CA-MHB (pH 7.4), 0.25 μM
[6] = E. coli in 1:4 CA-MHB (pH 7.4), 0.5 μM
[7] = E. coli in 1:4 CA-MHB (pH 7.4), 1 μM
[8] = E. coli in 1:4 CA-MHB (pH 7.4), 2.5 μM
[9] = E. coli in 1:4 CA-MHB (pH 7.4), 5 μM
[10] = E. coli in 1:4 CA-MHB (pH 7.4), 10 μM
[11] = E. coli in LPM (pH 5.5), 0.25 μM
[12] = E. coli in LPM (pH 5.5), 0.5 μM
[13] = E. coli in LPM (pH 5.5), 2.5 μM

Cn1c(COP(=O)(NCCBr)NCCBr)cnc1[N+](=O)[O-] [Evofosfamide]
MIC ([1]; DSM1117, pH 7.4, read-out: MIC (μM) CA-MHB): > 160 µM
OD600 at 6hr, Mean [2, 5]: 0.603
OD600 at 6hr, Mean [2, 6]: 0.596
OD600 at 6hr, Mean [2, 7]: 0.573
OD600 at 6hr, Mean [2, 8]: 0.563
OD600 at 6hr, Mean [2, 9]: 0.534
OD600 at 6hr, Mean [2, 10]: 0.521
OD600 at 6hr, Mean ([2]; E. coli in 1:4 CA-MHB (pH 7.4), 30 μM): 0.480
OD600 at 6hr, Mean [2, 11]: 0.553
OD600 at 6hr, Mean [2, 12]: 0.543
OD600 at 6hr, Mean ([2]; E. coli in LPM (pH 5.5), 1 μM): 0.392
OD600 at 6hr, Mean [2, 13]: 0.282
OD600 at 6hr, Mean ([2]; E. coli in LPM (pH 5.5), 5 μM): 0.193
OD600 at 6hr, Mean ([2]; E. coli in LPM (pH 5.5), 10 μM): 0.124
OD600 at 6hr, Mean ([2]; E. coli in LPM (pH 5.5), 30 μM): 0.114
EC50 ([2]; pH 5.5): 1540 nM
EC50 ([2]; pH 5.5, read-out: EC50 (regrowth inhibition curve, Fig. S4)): 1540 nM
EC50 ([2]; pH 7.4): 11600 nM
activity against non-growing UPEC in LPM (pH 5.5) compared to 1:4 CA-MHB (pH 7.4) ([2]; regrowth delay and killing, Figs. 2 and 3): potentiated by the low pH
OD600 at 8hr, Mean ([3]; S. aureus, 0.1 μM): 0.802
OD600 at 8hr, Mean ([3]; S. aureus, 0.5 μM): 0.751
OD600 at 8hr, Mean ([3]; S. aureus, 2.5 μM): 0.502
OD600 at 8hr, Mean ([3]; S. aureus, 10 μM): 0.107
EC50 ([3]; DSM2569, pH 7.4): 2660 nM
Log10(CFU/ml), Replicate #1 [4, 5]: 9.398 Log10(CFU/ml)
Log10(CFU/ml), Replicate #2 [4, 5]: 8.477 Log10(CFU/ml)
Log10(CFU/ml), Replicate #3 [4, 5]: 8.954 Log10(CFU/ml)
Δlog10(CFU/ml) ([4]; E. coli in 1:4 CA-MHB (pH 7.4), 0.25 μM, average killing vs before treatment (8.977)): 0.034 log10(CFU/ml)
Log10(CFU/ml), Replicate #1 [4, 6]: 9.279 Log10(CFU/ml)
Log10(CFU/ml), Replicate #2 [4, 6]: 9.114 Log10(CFU/ml)
Log10(CFU/ml), Replicate #3 [4, 6]: 8.301 Log10(CFU/ml)
Δlog10(CFU/ml) ([4]; E. coli in 1:4 CA-MHB (pH 7.4), 0.5 μM, average killing vs before treatment (8.977)): 0.079 log10(CFU/ml)
Log10(CFU/ml), Replicate #1 [4, 7]: 9.477 Log10(CFU/ml)
Log10(CFU/ml), Replicate #2 [4, 7]: 8.845 Log10(CFU/ml)
Log10(CFU/ml), Replicate #3 [4, 7]: 8.491 Log10(CFU/ml)
Δlog10(CFU/ml) ([4]; E. coli in 1:4 CA-MHB (pH 7.4), 1 μM, average killing vs before treatment (8.977)): 0.039 log10(CFU/ml)
Log10(CFU/ml), Replicate #1 [4, 8]: 9.415 Log10(CFU/ml)
Log10(CFU/ml), Replicate #2 [4, 8]: 8.954 Log10(CFU/ml)
Log10(CFU/ml), Replicate #3 [4, 8]: 8.491 Log10(CFU/ml)
Δlog10(CFU/ml) ([4]; E. coli in 1:4 CA-MHB (pH 7.4), 2.5 μM, average killing vs before treatment (8.977)): 0.024 log10(CFU/ml)
Log10(CFU/ml), Replicate #1 [4, 9]: 8.778 Log10(CFU/ml)
Log10(CFU/ml), Replicate #2 [4, 9]: 7.845 Log10(CFU/ml)
Log10(CFU/ml), Replicate #3 [4, 9]: 8.301 Log10(CFU/ml)
Δlog10(CFU/ml) ([4]; E. coli in 1:4 CA-MHB (pH 7.4), 5 μM, average killing vs before treatment (8.977)): 0.669 log10(CFU/ml)
Log10(CFU/ml), Replicate #1 [4, 10]: 9.000 Log10(CFU/ml)
Log10(CFU/ml), Replicate #2 [4, 10]: 8.000 Log10(CFU/ml)
Log10(CFU/ml), Replicate #3 [4, 10]: 7.778 Log10(CFU/ml)
Δlog10(CFU/ml) ([4]; E. coli in 1:4 CA-MHB (pH 7.4), 10 μM, average killing vs before treatment (8.977)): 0.718 log10(CFU/ml)
Log10(CFU/ml), Replicate #1 [4, 11]: 6.477 Log10(CFU/ml)
Log10(CFU/ml), Replicate #2 [4, 11]: 6.568 Log10(CFU/ml)
Log10(CFU/ml), Replicate #3 [4, 11]: 8.176 Log10(CFU/ml)
Δlog10(CFU/ml) ([4]; E. coli in LPM (pH 5.5), 0.25 μM, average killing vs before treatment (7.350)): 0.277 log10(CFU/ml)
Log10(CFU/ml), Replicate #1 [4, 12]: 6.602 Log10(CFU/ml)
Log10(CFU/ml), Replicate #2 [4, 12]: 6.903 Log10(CFU/ml)
Log10(CFU/ml), Replicate #3 [4, 12]: 8.230 Log10(CFU/ml)
Δlog10(CFU/ml) ([4]; E. coli in LPM (pH 5.5), 0.5 μM, average killing vs before treatment (7.350)): 0.105 log10(CFU/ml)
Log10(CFU/ml), Replicate #1 ([4]; E. coli in LPM (pH 5.5), 1 μM): 6.279 Log10(CFU/ml)
Log10(CFU/ml), Replicate #2 ([4]; E. coli in LPM (pH 5.5), 1 μM): 6.845 Log10(CFU/ml)
Log10(CFU/ml), Replicate #3 ([4]; E. coli in LPM (pH 5.5), 1 μM): 8.000 Log10(CFU/ml)
Δlog10(CFU/ml) ([4]; E. coli in LPM (pH 5.5), 1 μM, average killing vs before treatment (7.350)): 0.309 log10(CFU/ml)
Log10(CFU/ml), Replicate #1 [4, 13]: 6.301 Log10(CFU/ml)
Log10(CFU/ml), Replicate #2 [4, 13]: 6.079 Log10(CFU/ml)
Log10(CFU/ml), Replicate #3 [4, 13]: 7.954 Log10(CFU/ml)
Δlog10(CFU/ml) ([4]; E. coli in LPM (pH 5.5), 2.5 μM, average killing vs before treatment (7.350)): 0.572 log10(CFU/ml)
Log10(CFU/ml), Replicate #1 ([4]; E. coli in LPM (pH 5.5), 5 μM): 5.699 Log10(CFU/ml)
Log10(CFU/ml), Replicate #2 ([4]; E. coli in LPM (pH 5.5), 5 μM): 5.447 Log10(CFU/ml)
Log10(CFU/ml), Replicate #3 ([4]; E. coli in LPM (pH 5.5), 5 μM): 7.602 Log10(CFU/ml)
Δlog10(CFU/ml) ([4]; E. coli in LPM (pH 5.5), 5 μM, average killing vs before treatment (7.350)): 1.101 log10(CFU/ml)
Log10(CFU/ml), Replicate #1 ([4]; E. coli in LPM (pH 5.5), 10 μM): 5.176 Log10(CFU/ml)
Log10(CFU/ml), Replicate #2 ([4]; E. coli in LPM (pH 5.5), 10 μM): 4.954 Log10(CFU/ml)
Log10(CFU/ml), Replicate #3 ([4]; E. coli in LPM (pH 5.5), 10 μM): 7.146 Log10(CFU/ml)
Δlog10(CFU/ml) ([4]; E. coli in LPM (pH 5.5), 10 μM, average killing vs before treatment (7.350)): 1.592 log10(CFU/ml)

CO[C@H]1/C=C/O[C@@]2(C)Oc3c(C)c(O)c4c(O)c(c(/C=N/N5CCN(C)CC5)c(O)c4c3C2=O)NC(=O)/C(C)=C\C=C\[C@H](C)[C@H](O)[C@@H](C)[C@@H](O)[C@@H](C)[C@H](OC(C)=O)[C@@H]1C [Rifampicin]
MIC ([1]; DSM1117, P. aeruginosa, CA-MHB pH 7.4, read-out: MIC (μM) CA-MHB): 80 µM (≈ 65.8 µg/mL)
EC50 ([2]; E. coli, LPM pH 5.5, regrowth delay of non-growing bacteria, 24 h treatment, OD600 6 h after 2500-fold dilution, read-out: EC50): 950 nM
EC50 ([2]; LPM pH 5.5 (red curve), medium assigned by comparison with Dataset 1, read-out: EC50 (regrowth inhibition curve, Fig. S4)): 970 nM
EC50 ([3]; DSM2569, S. aureus, regrowth delay of non-growing bacteria, 1:4 CA-MHB pH 7.4, 24 h treatment, OD600 8 h after dilution, read-out: EC50): 43 nM
